Target: T1, MK2 (Homo sapiens, UniProt P49137)
Assay: MK2 degradation in human SW1353 cells (MSD, 24 h)
Format: cell-based
Design: endogenous in cells; host or cells: SW-1353 (ATCC HTB-94)
Settings: read-out: MK2 MSD SW 1353 24 h Dmax %
Description: The human chondrocyte cancer cell line SW-1353 (ATCC(HTB-94)) was cultured in 96 well plates (Coming 3894) at a density of 200,000 cells per well in 100 microlitres in complete growth medium of Leibovitz's L-15 Medium (Gibco) pus 10% fetal Bovine Serum (Coming) and Penicillin/Streptomycin (SolarBio) at 37 degrees Celsius. A serial dilution of each compound (usually 3 to 5 fold serial dilutions up to 10 separate concentration points) was added to individual wells from a 10 millimolar stock solution, at a background concentration of 0.10% DMSO and the cells were shaken at 600 rpm for 5 minutes and then were cultured for 24 hours at 37 degrees Celsius. Separately, a custom MSD (MesoScaleDiscovery, L15XA-3) plate for detection of human MK2 was prepared by coating the plate with the commercial AbCam ab247272 reagent in 1× Phosphate Buffered Saline at 40 microlitres per well and incubated at 4 degrees Celsius overnight. The next day, the MSD plate was washed with 150 microlitres of Tween buffered saline, blocked with MSD blocking buffer (3% Blocker A from MSD), and washed again.
The cell plate was centrifuged at 3,200 g for 5 minutes and the supernatant was discarded and 100 microlitres of RIPA lysis buffer (containing proteinase inhibitors, Boston BioProducts BP-115D) was added and the plate was sealed and shaken on ice for 20 minutes. The plate was centrifuged as before and 70 microlitres of sample lysate was added to the MSD plates and they were shaken at room temperature for 1 hour at 600 rpm. The MSD plate was washed 3 times as before and then the primary MK2 detection antibody (Santa Cruz sc-100393) was added at a final concentration of 1 microgram per ml at 25 microlitres per well and shaken at room temperature for 1 hour at 600 rpm.
(§1) After 3 more washes, the secondary detection antibody (SULFO-Tag anti rabbit antibody R32AB-5) was added at a final concentration of 1 microgram per ml at 25 microlitres per well and shaken at room temperature for 1 hour at 600 rpm. After 3 more washes, the 1X MSD (diluted from 5X concentrate with water) reading buffer was added at 150 microlitres per well and read on the MSD instrument Meso Sector S 600.
(§2) The inhibition/degradation curves and DC50 values were plotted and calculated using XL Fit (version v5.3.1.3) using equation 201 and a 4 parameter logistic model whereby fit=(A+((B−A)/(1+((x/C)D))) where A is the Bottom and B is the Top and C is the IC50 and D is the slope and high C is the signal for the DMSO treated cells and Low C is the signal is the signal for the lysis buffer.

T1 sequence (P49137 whole entry): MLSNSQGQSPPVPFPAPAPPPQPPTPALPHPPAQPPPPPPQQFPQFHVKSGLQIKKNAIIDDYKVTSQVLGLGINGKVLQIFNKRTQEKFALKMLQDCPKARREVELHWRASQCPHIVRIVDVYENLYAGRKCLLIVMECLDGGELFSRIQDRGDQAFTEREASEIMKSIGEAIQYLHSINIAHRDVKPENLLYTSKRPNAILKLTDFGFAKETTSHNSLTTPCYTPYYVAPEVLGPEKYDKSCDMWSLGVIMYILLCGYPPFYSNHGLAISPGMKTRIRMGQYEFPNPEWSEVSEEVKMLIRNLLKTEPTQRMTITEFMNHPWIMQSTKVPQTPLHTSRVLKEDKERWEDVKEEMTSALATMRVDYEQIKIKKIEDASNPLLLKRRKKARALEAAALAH

`Cn1c(=O)n(C2CCC(=O)NC2=O)c2cccc(-n3ccc(N4CCN(c5ccc(-c6nccc(-c7cc8c([nH]7)C7(CCCC7)CNC8=O)n6)cc5)CC4)c3)c21` (stereo not drawn) [I-32] and `Cn1c(=O)n(C2CCC(=O)NC2=O)c2cccc(N3CCC(N4CCN(c5ccc(-c6nccc(-c7cc8c([nH]7)C7(CCCC7)CNC8=O)n6)cc5)CC4)C3)c21` (stereo not drawn) [I-33] cannot be ordered by Dmax: greater than 50% for the first, 50 to 75% for the second.

`Cn1c(=O)n(C2CCC(=O)NC2=O)c2ccc(N3CC(CN4CCC(N5CCN(c6nccc(-c7cc8c([nH]7)C7(CC7)CNC8=O)n6)CC5)CC4)C3)cc21` (stereo not drawn) [I-34] and `Cn1c(=O)n(C2CCC(=O)NC2=O)c2ccc(N3CC(CN4CCN(c5ccc(-c6nccc(-c7cc8c([nH]7)C7(CC7)CNC8=O)n6)cc5C#N)CC4)C3)cc21` (stereo not drawn) [I-37] cannot be ordered by Dmax: greater than 50% for the first, greater than 75% for the second.

`C[C@@H]1CNc2c(sc3ccc4nc(N5CCN(CCC6CC7(CCN(C(=O)c8ccc(Cl)c(N9CCC(=O)NC9=O)c8)CC7)C6)CC5)ccc4c23)C(=O)N1` [I-35] and `C[C@@H]1CNc2c(sc3ccc4nc(N5CCC(OC6CCC7(CC6)CN(c6ccc8c(c6)n(C)c(=O)n8C6CCC(=O)NC6=O)C7)CC5)ccc4c23)C(=O)N1` (stereo partly drawn) [I-36] cannot be ordered by Dmax: greater than 75% for the first, greater than 75% for the second.

Same assay, conditions: read-out: MK2 MSD SW1353 degradation 24 h GMean External Abs DC50

First: Cn1c(=O)n(C2CCC(=O)NC2=O)c2cccc(-n3ccc(N4CCN(c5ccc(-c6nccc(-c7cc8c([nH]7)C7(CCCC7)CNC8=O)n6)cc5)CC4)c3)c21 (stereo not drawn) [I-32]
Second: Cn1c(=O)n(C2CCC(=O)NC2=O)c2cccc(N3CCC(N4CCN(c5ccc(-c6nccc(-c7cc8c([nH]7)C7(CCCC7)CNC8=O)n6)cc5)CC4)C3)c21 (stereo not drawn) [I-33]
The DC50 of the first is higher: greater than 100 nM for the first, 1 to 10 nM for the second.

Going from `Cn1c(=O)n(C2CCC(=O)NC2=O)c2ccc(N3CC(CN4CCC(N5CCN(c6nccc(-c7cc8c([nH]7)C7(CC7)CNC8=O)n6)CC5)CC4)C3)cc21` (stereo not drawn) [I-34] to `Cn1c(=O)n(C2CCC(=O)NC2=O)c2ccc(N3CC(CN4CCN(c5ccc(-c6nccc(-c7cc8c([nH]7)C7(CC7)CNC8=O)n6)cc5C#N)CC4)C3)cc21` (stereo not drawn) [I-37], the DC50 falls from greater than 100 nM to less than 1 nM.

`C[C@@H]1CNc2c(sc3ccc4nc(N5CCN(CCC6CC7(CCN(C(=O)c8ccc(Cl)c(N9CCC(=O)NC9=O)c8)CC7)C6)CC5)ccc4c23)C(=O)N1` [I-35] and `C[C@@H]1CNc2c(sc3ccc4nc(N5CCC(OC6CCC7(CC6)CN(c6ccc8c(c6)n(C)c(=O)n8C6CCC(=O)NC6=O)C7)CC5)ccc4c23)C(=O)N1` (stereo partly drawn) [I-36] cannot be ordered by DC50: less than 1 nM for the first, less than 1 nM for the second.

Target: T1, MK2
Assay: MK2 degradation in human THP-1 monocytic cells (MSD, 24 h)
Format: cell-based
Design: endogenous in cells
Settings: THP-1 cells
Description: The human monocytic cancer cell line THP-1 (ATCC (TIB-202)) was cultured in 96 well plates (Coming 3894) at a density of 200,000 cells per well in 100 microlitres in complete growth medium of RPMI 1640 (Gibco) pus 10% fetal Bovine Serum (Coming) and Penicillin/Streptomycin (SolarBio) at 37 degrees Celsius and 5% CO2. A serial dilution of each compound (usually 3 to 5 fold serial dilutions up to 10 separate concentration points) was added to individual wells from a 10 millimolar stock solution, at a background concentration of 0.1% DMSO and the cells were shaken at 600 rpm for 5 minutes and then were cultured for 24 hours at 37 degrees Celsius and 5% carbon dioxide. Separately, a custom MSD (MesoScaleDiscovery, L15XA-3) plate for detection of human MK2 was prepared by coating the plate with the commercial AbCarn ab247272 reagent in 1× Phosphate Buffered Saline at 40 microlitres per well and incubated at 4 degrees Celsius overnight. The next day, the MSD plate was washed with 150 microlitres of Tween buffered saline, blocked with MSD blocking buffer (3% BlockerA from MSD), and washed again.
The cell plate was centrifuged at 3,200 g for 5 minutes and the supernatant was discarded and 100 microlitres of RIPA lysis buffer (containing proteinase inhibitors, Boston BioProducts BP-115D) was added and the plate was sealed and shaken on ice for 20 minutes. The plate was centrifuged as before and 70 microlitres of sample lysate was added to the MSD plates and they were shaken at room temperature for I hour at 600 rpm. The MSD plate was washed 3 times as before and then the primary MK2 detection antibody (Santa Cruz sc-100393) was added at a final concentration of 1 microgram per ml at 25 microlitres per well and shaken at room temperature for 1 hour at 600 rpm.
as §1
as §2, with “IC50and” for “IC50 and”

`Cn1c(=O)n(C2CCC(=O)NC2=O)c2cccc(-n3ccc(N4CCN(c5ccc(-c6nccc(-c7cc8c([nH]7)C7(CCCC7)CNC8=O)n6)cc5)CC4)c3)c21` (stereo not drawn) [I-32] and `Cn1c(=O)n(C2CCC(=O)NC2=O)c2cccc(N3CCC(N4CCN(c5ccc(-c6nccc(-c7cc8c([nH]7)C7(CCCC7)CNC8=O)n6)cc5)CC4)C3)c21` (stereo not drawn) [I-33] cannot be ordered by Dmax: greater than 50% for the first, 50 to 75% for the second.

`Cn1c(=O)n(C2CCC(=O)NC2=O)c2ccc(N3CC(CN4CCC(N5CCN(c6nccc(-c7cc8c([nH]7)C7(CC7)CNC8=O)n6)CC5)CC4)C3)cc21` (stereo not drawn) [I-34] and `Cn1c(=O)n(C2CCC(=O)NC2=O)c2ccc(N3CC(CN4CCN(c5ccc(-c6nccc(-c7cc8c([nH]7)C7(CC7)CNC8=O)n6)cc5C#N)CC4)C3)cc21` (stereo not drawn) [I-37] cannot be ordered by Dmax: greater than 50% for the first, greater than 75% for the second.

`C[C@@H]1CNc2c(sc3ccc4nc(N5CCN(CCC6CC7(CCN(C(=O)c8ccc(Cl)c(N9CCC(=O)NC9=O)c8)CC7)C6)CC5)ccc4c23)C(=O)N1` [I-35] and `C[C@@H]1CNc2c(sc3ccc4nc(N5CCC(OC6CCC7(CC6)CN(c6ccc8c(c6)n(C)c(=O)n8C6CCC(=O)NC6=O)C7)CC5)ccc4c23)C(=O)N1` (stereo partly drawn) [I-36] cannot be ordered by Dmax: greater than 75% for the first, greater than 75% for the second.

Same assay, conditions: THP-1 cells, read-out: MK2 MSD THP-1 degradation 24 h GMean External Abs DC50

First: Cn1c(=O)n(C2CCC(=O)NC2=O)c2cccc(-n3ccc(N4CCN(c5ccc(-c6nccc(-c7cc8c([nH]7)C7(CCCC7)CNC8=O)n6)cc5)CC4)c3)c21 (stereo not drawn) [I-32]
Second: Cn1c(=O)n(C2CCC(=O)NC2=O)c2cccc(N3CCC(N4CCN(c5ccc(-c6nccc(-c7cc8c([nH]7)C7(CCCC7)CNC8=O)n6)cc5)CC4)C3)c21 (stereo not drawn) [I-33]
The DC50 of the first is higher: greater than 100 nM for the first, 1 to 10 nM for the second.

Going from `Cn1c(=O)n(C2CCC(=O)NC2=O)c2ccc(N3CC(CN4CCC(N5CCN(c6nccc(-c7cc8c([nH]7)C7(CC7)CNC8=O)n6)CC5)CC4)C3)cc21` (stereo not drawn) [I-34] to `Cn1c(=O)n(C2CCC(=O)NC2=O)c2ccc(N3CC(CN4CCN(c5ccc(-c6nccc(-c7cc8c([nH]7)C7(CC7)CNC8=O)n6)cc5C#N)CC4)C3)cc21` (stereo not drawn) [I-37], the DC50 falls from greater than 100 nM to less than 1 nM.

`C[C@@H]1CNc2c(sc3ccc4nc(N5CCN(CCC6CC7(CCN(C(=O)c8ccc(Cl)c(N9CCC(=O)NC9=O)c8)CC7)C6)CC5)ccc4c23)C(=O)N1` [I-35] and `C[C@@H]1CNc2c(sc3ccc4nc(N5CCC(OC6CCC7(CC6)CN(c6ccc8c(c6)n(C)c(=O)n8C6CCC(=O)NC6=O)C7)CC5)ccc4c23)C(=O)N1` (stereo partly drawn) [I-36] cannot be ordered by DC50: less than 1 nM for the first, less than 1 nM for the second.

Source: patent US20260125397A1, “MK2 DEGRADERS AND USES THEREOF” (Kymera Therapeutics, Inc., priority 2023, published 2026)
